Measured values published in article PMC8304462, “Isolation, Structural Characterization and Antidiabetic Activity of New Diketopiperazine Alkaloids from Mangrove Endophytic Fungus Aspergillus sp. 16-5c” (Marine Drugs, 2021).

Experiments:
α-glucosidase = α-glucosidase inhibition assay (p-NPG, 96-well microplate); format: biochemical; conditions: 37 °C, pH 6.86, substrate p-NPG
Description: The α-glucosidase inhibition assay was performed in a 96-well microplate reader method as described in a previous report. The α-glucosidase assay was performed at 37 °C with a final volume of 200 μL. […] 20 μL substrate p-nitrophenyl-α-D-glucopyranoside (p-NPG) was added to each well to start the reaction. The reaction was incubated at 37 °C for 15 min and stopped by the addition of 50 μL 0.4 M Na2CO3.

PTP1B = target: T1, PTP1B (Homo sapiens, UniProt P18031); test: PTP1B inhibitory activity (p-NPP hydrolysis); format: biochemical; conditions: screening concentration 100 μg/mL
T1 sequence (P18031 1-435): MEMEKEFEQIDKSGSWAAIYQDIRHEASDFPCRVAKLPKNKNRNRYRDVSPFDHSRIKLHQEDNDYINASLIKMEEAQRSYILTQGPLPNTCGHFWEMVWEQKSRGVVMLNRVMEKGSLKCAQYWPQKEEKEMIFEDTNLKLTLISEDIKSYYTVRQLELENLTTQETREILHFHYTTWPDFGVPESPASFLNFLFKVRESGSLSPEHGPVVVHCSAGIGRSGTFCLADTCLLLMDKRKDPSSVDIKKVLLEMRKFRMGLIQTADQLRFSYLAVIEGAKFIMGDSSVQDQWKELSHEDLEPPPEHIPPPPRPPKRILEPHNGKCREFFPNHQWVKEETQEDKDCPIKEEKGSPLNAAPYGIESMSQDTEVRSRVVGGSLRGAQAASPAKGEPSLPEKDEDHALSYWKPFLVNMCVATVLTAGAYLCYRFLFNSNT
Description: PTP1B inhibitory activity was determined by measuring the enzymatic hydrolysis rate of p-nitrophenyl phosphate (p-NPP) as reported in the study. This assay was performed at 37 °C with a final volume of 100 μL, using a Tris-HCl buffer (25 mM Tris-HCl, 1 mM EDTA, 1 mM DTT, pH 7.5). […] After 30 min, the reaction ended by adding 50 μL 2.5 M NaOH solution.

| IC50 (α-glucosidase) | PTP1B (Inhibition Ratio/%) (PTP1B) | Structure (SMILES) |
| --- | --- | --- |
| 40.7 µM | <10% | C=CC(C)(C)c1[nH]c2ccccc2c1/C=C1\NC(=O)C2CCCN2C1=O (centres unmarked) [Compound 10, brevianamide W] |
| 353 µM | <10% | O=C1N[C@@H](Cc2c[nH]c3ccccc23)C(=O)N[C@H]1Cc1ccccc1 [Compound 14, cyclo-(tryptophyl-phenylalanyl)] |
| 144 µM | <10% | C=CC(C)(C)c1[nH]c2ccccc2c1C(O)C1NC(=O)C2CCCN2C1=O (centres unmarked) [Compound 4, aspergiamide D] |
| 7.6 µM | <10% | C=CC(C)(C)c1[nH]c2ccccc2c1/C=c1\[nH]c(=O)c2n(c1=O)CCC=2 [Compound 9, brevianamide K] |
| 364 µM | <10% | C=CC(C)(C)c1[nH]c2ccccc2c1/C=C1\NC(=O)C2(OC)CCCN2C1=O (centres unmarked) [Compound 8, brevianamide R] |
| 18.2 µM | 29% | C=CC(C)(C)c1[nH]c2ccccc2c1C=C1NC(=O)C(CCCO)NC1=O (centres unmarked) [Compound 1, aspergiamide A] |
| 67.8 µM | <10% | O=C1N[C@@H](O)c2nc3ccccc3c(=O)n2[C@H]1Cc1ccccc1 [Compound 15, brevianamide M] |
| 1090 µM | <10% | C=CC(C)(C)c1[nH]c2ccccc2c1C(OC)C1NC(=O)C2CCCN2C1=O (centres unmarked) [Compound 5, aspergiamide E] |
| 83.9 µM | <10% | C=CC(C)(C)c1[nH]c2ccccc2c1C=C1NC(=O)C2CC(O)CN2C1=O (centres unmarked) [Compound 3, aspergiamide C] |
| 37.5 µM | <10% | CC(C)=CCn1cc(CC2NC(=O)C3CCCN3C2=O)c2ccccc21 [Compound 11, N-Prenyl-cyclo-L-tryptophyl-L-proline] |
| 267 µM | <10% | O=C1NC(O)c2nc3ccccc3c(=O)n2C1Cc1ccc(O)cc1 (centres unmarked) [Compound 6, aspergiamide F] |
| 131 µM | <10% | C=CC(C)(C)c1[nH]c2ccccc2c1C=C1NC(=O)C(CCC(=O)O)NC1=O (centres unmarked) [Compound 2, aspergiamide B] |
| 198 µM | <10% | C=CC(C)(C)c1[nH]c2ccccc2c1/C=C1\NC(=O)C2(O)CCCN2C1=O (centres unmarked) [Compound 7, brevianamide Q] |
| 363 µM | <10% | O=C1NC(=O)[C@H](Cc2ccccc2)n2c1nc1ccccc1c2=O [Compound 16, brevianamide N] |
| 480 µM | <10% | C=CC(C)(C)c1[nH]c2ccccc2c1CC1NC(=O)C2CCCN2C1=O (stereo not drawn) [Compound 13, epi-deoxybrevianamide E] |

| Structure (SMILES) | IC50 (α-glucosidase) | PTP1B (Inhibition Ratio/%) (PTP1B) |
| --- | --- | --- |
| O=C1N[C@@H](Cc2c[nH]c3ccccc23)C(=O)N2CCC[C@@H]12 [Compound 12, brevianamide F] | 1090 µM | <10% |
